Results on one compound are retold here after US9468602B2, “Pharmaceutical microemulsion for preventing supramolecular aggregation of amphiphilic molecules” (AZAD Pharma AG, priority 2009, dated 2016).

The nature of the series: Dynamic Laser Light Scattering (DLLS) analysis of supramolecular aggregation. It is filed as physicochemical. As for the experimental part: Dynamic Laser Light Scattering (DLLS) was carried out on a Zetasizer Nano S from Malvern Instruments. DLLS is used for measuring the size of the microemulsion oil droplets or size of the supramolecular aggregates (% distribution function modality). Further characterization of supramolecular aggregation is given by the correlation coefficient function modality analysis of the Dynamic Laser Light Scattering.
In order to monitor the level of molecular aggregation in solution, Dynamic Laser Light Scattering (DLLS) has been used. Using this technique, it is not necessary to dilute the sample.

As for `CC(=O)O[C@@]12CO[C@@H]1C[C@H](O)[C@@]1(C)C(=O)[C@H](O)C3=C(C)[C@@H](OC(=O)[C@H](O)[C@@H](NC(=O)OC(C)(C)C)c4ccccc4)C[C@@](O)([C@@H](OC(=O)c4ccccc4)[C@H]21)C3(C)C` [docetaxel], the “Aggregation by DLLS (correlation coefficient function)” value (shortened to “Aggregation by DLLS”) (50 μg/ml in water) is listed as “presence of aggregates”, the “Aggregation by DLLS” value (50 μg/ml in water plus triacetin 10 mg/ml) is given as “greatly reduces supramolecular aggregation” and the “Aggregation by DLLS” value (50 μg/ml in water plus triacetin 30 mg/ml) was “totally eliminates the presence of molecular aggregates”.
